Laboratory results reported in patent US11419945B2, “Antigen binding proteins” (Glaxo Group Limited, priority 2011, dated 2022).

Experiments:
U266 = assay: ADCC of afucosylated J6M0, U266; assay type: cell-based, human; conditions: PBMC E:T 50:1, 18 hours, one value per assay/donor (A-K)
Experimental: (§1) FIG. 18: ADCC dose response curves of CA8 J6M0 Potelligent against a panel of 5 multiple myeloma lines—Human PBMC were incubated with multiple myeloma target cells in the presence of varying concentrations of CA8 J6M0 potelligent antibody at an E:T ratio of 50:1 for 18 hours. The percentage of target cells remaining in the effector plus target mixture was then measured by FACS using a fluorescently labelled anti-CD138 antibody to detect the target cells and the percent cytotoxicity calculated. Example dose response curves for CA8 J6M0 potelligent against the five multiple myeloma cell lines tested—[…], RPMI8226, JJN-3, OPM-2, and U266. Each data point is from a singlicate value.
(§2) Human PBMC were incubated with multiple myeloma target cells at an E:T ratio of 50:1 in presence of varying concentrations of afucosylated (Potelligent) J6M0 The percentage of target cells remaining in the effector+target cell mixture after 18 hours was measured by FACS using a fluorescently labelled anti-CD138 antibody to detect the target cells and the percent lysis calculated. This is representative of several experiments.

[1] = tested on: five multiple myeloma target cell lines; assay: ADCC of afucosylated J6M0 on MM cell lines (panel); assay type: cell-based; conditions: human PBMC, E:T ratio 50:1, 18 hours
Experimental: as §1, §2

[2] = tested on: Europium labelled ARH77-10B5 cells; assay: ADCC potency of conjugated, afucosylated J6M0; assay type: cell-based, human; conditions: PBMC: target cell ratio 50:1, up to 10000 ng/ml, 2 hours
Experimental: FIG. 17: ADCC activity of ADC J6M0 molecules—Figure showing ADCC assay on J6M0 antibodies using ARH77 BCMA expressing target cells. Human PBMC were incubated with europium labelled ARH77 BCMA transfected target cells in the presence of a range of concentrations of J6M0 WT and potelligent BCMA antibodies conjugated to MMAE, MMAF, or unconjugated Europium release was monitored on the Victor 2 1420 multilabel reader.
Afucosylated J6M0 conjugated to MMAE or MMAF was tested in ADCC assays using BCMA transfectants to ensure that its ADCC activity was not compromised by the conjugation. Europium labelled ARH77-10B5 cells were incubated with various J6M0 WT and Potelligent BCMA antibodies at concentrations up to 10000 ng/ml for 30 minutes prior to the addition of PBMCs (PBMC: target cell ratio 50:1). Two hours later an aliquot of cell media was sampled and mixed with enhancement solution. After 30 minutes on a plate shaker, europium release was monitored on the Victor 2 1420 multi-label reader. Datapoints represent means of triplicate values.

OPM-2 = assay: ADCC of afucosylated J6M0, OPM-2; assay type: cell-based, human; conditions: OPM-2, ADCC, PBMC E:T 50:1, 18 hours; one value per assay/donor (A-K)
Experimental: as §1, §2

For “J6M0 Potelligent: humanised CA8 version J6M0 in afucosylated (Potelligent) form”, which EC50 (U266) is on record?
The EC50 was 9.04 ng/mL.

What about the ADCC activity [1] of the same substance?
The ADCC activity was “showed ADCC activity against all five multiple myeloma target cell lines tested”.

And the “ADCC potency (europium release)” value [2]?
The value was “lower EC50 and higher maximal lysis”.

What about the EC50 (OPM-2) of the same substance?
The EC50 was 4.15 ng/mL.
